In ChEMBL document CHEMBL1143416, “In vitro susceptibility to posaconazole of 1,903 yeast isolates recovered in France from 2003 to 2006 and tested by the method of the European committee on antimicrobial susceptibility testing” (2007):
Converted amounts (≈) assume the structure as drawn.

Experiments:
Assay type in all cases: functional
[1] = test system: [Candida] haemuloni; test: Antimicrobial activity against Candida haemulonii isolate; conditions: Candidozyma haemuli
[2] = test system: Meyerozyma caribbica; test: Antimicrobial activity against Candida fermentati isolate
[3] = test system: Saccharomyces cerevisiae; test: Antimicrobial activity against Saccharomyces cerevisiae isolate
[4] = test system: Cyberlindnera jadinii; test: Antimicrobial activity against Candida utilis isolate; conditions: Williopsis jadinii
[5] = test system: Yarrowia lipolytica; test: Antimicrobial activity against Candida lipolytica isolate
[6] = test system: Wickerhamomyces anomalus; test: Antimicrobial activity against Candida pelliculosa isolate; conditions: Hansenula anomala
[7] = test system: [Candida] palmioleophila; test: Antimicrobial activity against Candida palmioleophila isolate; conditions: Suzukiozyma palmioleophila
[8] = test system: Magnusiomyces capitatus; test: Antimicrobial activity against Geotrichum capitatum isolate
[9] = test system: Rhodotorula mucilaginosa; test: Antimicrobial activity against Rhodotorula mucilaginosa isolate
[10] = test system: [Candida] inconspicua; test: Antimicrobial activity against Candida inconspicua isolate; conditions: Pichia inconspicua
[11] = test system: Candida africana; test: Antimicrobial activity against Candida africana isolate
[12] = test system: Trichosporon; test: Antimicrobial activity against Trichosporon isolate
[13] = test system: Debaryomyces hansenii; test: Antimicrobial activity against Candida famata isolate
[14] = test system: Trichosporon asahii; test: Antimicrobial activity against Trichosporon asahii isolate
[15] = test system: Trichosporon inkin; test: Antimicrobial activity against Trichosporon inkin isolate
[16] = test system: Diutina rugosa; test: Antimicrobial activity against Candida rugosa isolate
[17] = test system: Kodamaea ohmeri; test: Antimicrobial activity against Pichia ohmeri isolate
[18] = test system: Apiotrichum loubieri; test: Antimicrobial activity against Trichosporon loubieri isolate
[19] = test system: Cutaneotrichosporon mucoides; test: Antimicrobial activity against Trichosporon mucoides isolate
[20] = test system: Candida albicans; test: Antimicrobial activity against Candida albicans isolate
[21] = test system: Nakaseomyces glabratus; test: Antimicrobial activity against Candida glabrata isolate
[22] = test system: Candida parapsilosis; test: Antimicrobial activity against Candida parapsilosis isolate; conditions: Lodderomyces parapsilosis
[23] = test system: Candida tropicalis; test: Antimicrobial activity against Candida tropicalis isolate
[24] = test system: Cryptococcus neoformans; test: Antimicrobial activity against Cryptococcus neoformans isolate
[25] = test system: Pichia kudriavzevii; test: Antimicrobial activity against Candida krusei isolate
[26] = test system: Kluyveromyces marxianus; test: Antimicrobial activity against Candida kefyr isolate
[27] = test system: Candida dubliniensis; test: Antimicrobial activity against Candida dubliniensis isolate
[28] = test system: Meyerozyma guilliermondii; test: Antimicrobial activity against Candida guilliermondii isolate
[29] = test system: Nakaseomyces glabratus; test: Antimicrobial activity against Candida glabrata blood isolate
[30] = test system: Candida parapsilosis; test: Antimicrobial activity against Candida parapsilosis blood isolate; conditions: Lodderomyces parapsilosis
[31] = test system: Candida tropicalis; test: Antimicrobial activity against Candida tropicalis blood isolate
[32] = test system: Cryptococcus neoformans; test: Antimicrobial activity against Cryptococcus neoformans blood isolate
[33] = test system: Pichia kudriavzevii; test: Antimicrobial activity against Candida krusei blood isolate
[34] = test system: Kluyveromyces marxianus; test: Antimicrobial activity against Candida kefyr blood isolate
[35] = test system: Candida dubliniensis; test: Antimicrobial activity against Candida dubliniensis blood isolate
[36] = test system: Meyerozyma guilliermondii; test: Antimicrobial activity against Candida guilliermondii blood isolate
[37] = test system: Clavispora lusitaniae; test: Antimicrobial activity against Candida lusitaniae blood isolate
[38] = test system: Candida albicans; test: Antimicrobial activity against Candida albicans isolate from superficial infection
[39] = test system: Nakaseomyces glabratus; test: Antimicrobial activity against Candida glabrata isolate from superficial infection
[40] = test system: Candida parapsilosis; test: Antimicrobial activity against Candida parapsilosis isolate from superficial infection; conditions: Lodderomyces parapsilosis
[41] = test system: Candida tropicalis; test: Antimicrobial activity against Candida tropicalis isolate from superficial infection
[42] = test system: Cryptococcus neoformans; test: Antimicrobial activity against Cryptococcus neoformans isolate from superficial infection
[43] = test system: Pichia kudriavzevii; test: Antimicrobial activity against Candida krusei isolate from superficial infection
[44] = test system: Candida dubliniensis; test: Antimicrobial activity against Candida dubliniensis isolate from superficial infection
[45] = test system: Meyerozyma guilliermondii; test: Antimicrobial activity against Candida guilliermondii isolate from superficial infection
[46] = test system: Clavispora lusitaniae; test: Antimicrobial activity against Candida lusitaniae isolate from superficial infection
[47] = test system: Clavispora lusitaniae; test: Antimicrobial activity against Candida lusitaniae isolate
[48] = test system: Candida albicans; test: Antimicrobial activity against Candida albicans blood isolate

## C[C@@H](c1ncncc1F)[C@](O)(Cn1cncn1)c1ccc(F)cc1F [VORICONAZOLE]
[1]
  MIC50: ≥ 8 µg/mL
  MIC90: ≥ 8 µg/mL
[2]
  MIC50: 0.125 µg/mL (≈ 0.358 µM)
  MIC90: 1 µg/mL (≈ 2.86 µM)
[3]
  MIC50: ≤ 0.015 µg/mL
[4]
  MIC50: 0.03 µg/mL (≈ 0.0859 µM)
[5]
  MIC50: ≤ 0.015 µg/mL
[6]
  MIC50: 0.03 µg/mL (≈ 0.0859 µM)
[7]
  MIC50: 0.06 µg/mL (≈ 0.172 µM)
[8]
  MIC50: ≤ 0.015 µg/mL
[9]
  MIC50: 2 µg/mL (≈ 5.73 µM)
[10]
  MIC50: 0.06 µg/mL (≈ 0.172 µM)
[11]
  MIC50: ≤ 0.015 µg/mL
[12]
  MIC50: 0.03 µg/mL (≈ 0.0859 µM)
[13]
  MIC50: ≤ 0.015 µg/mL
[14]
  MIC50: 0.03 µg/mL (≈ 0.0859 µM)
[15]
  MIC50: ≤ 0.015 µg/mL
[16]
  MIC50: ≤ 0.015 µg/mL
[17]
  MIC50: 0.03 µg/mL (≈ 0.0859 µM)
[18]
  MIC50: 0.03 µg/mL (≈ 0.0859 µM)
[19]
  MIC50: 0.03 µg/mL (≈ 0.0859 µM)

## OC(Cn1cncn1)(Cn1cncn1)c1ccc(F)cc1F [FLUCONAZOLE]
[1]
  MIC50: 32 µg/mL (≈ 104 µM)
  MIC90: ≥ 64 µg/mL
[2]
  MIC50: 8 µg/mL (≈ 26.1 µM)
  MIC90: ≥ 64 µg/mL
[3]
  MIC50: 0.25 µg/mL (≈ 0.816 µM)
[4]
  MIC50: 1 µg/mL (≈ 3.27 µM)
[5]
  MIC50: 2 µg/mL (≈ 6.53 µM)
[6]
  MIC50: 2 µg/mL (≈ 6.53 µM)
[7]
  MIC50: 8 µg/mL (≈ 26.1 µM)
[8]
  MIC50: 4 µg/mL (≈ 13.1 µM)
[9]
  MIC50: ≥ 64 µg/mL
[10]
  MIC50: 16 µg/mL (≈ 52.2 µM)
[11]
  MIC50: 0.25 µg/mL (≈ 0.816 µM)
[12]
  MIC50: 2 µg/mL (≈ 6.53 µM)
[13]
  MIC50: 0.125 µg/mL (≈ 0.408 µM)
[14]
  MIC50: 2 µg/mL (≈ 6.53 µM)
[15]
  MIC50: 0.5 µg/mL (≈ 1.63 µM)
[16]
  MIC50: 1 µg/mL (≈ 3.27 µM)
[17]
  MIC50: 8 µg/mL (≈ 26.1 µM)
[18]
  MIC50: 2 µg/mL (≈ 6.53 µM)
[19]
  MIC50: 2 µg/mL (≈ 6.53 µM)

## CC[C@@H]([C@H](C)O)n1ncn(-c2ccc(N3CCN(c4ccc(OC[C@@H]5CO[C@@](Cn6cncn6)(c6ccc(F)cc6F)C5)cc4)CC3)cc2)c1=O [POSACONAZOLE]
[20]
  MIC50: 0.06 µg/mL (≈ 0.0856 µM)
  MIC90: 0.125 µg/mL (≈ 0.178 µM)
[21]
  MIC50: 1 µg/mL (≈ 1.43 µM)
  MIC90: ≥ 8 µg/mL
[22]
  MIC50: 0.125 µg/mL (≈ 0.178 µM)
  MIC90: 0.25 µg/mL (≈ 0.357 µM)
[23]
  MIC50: 0.125 µg/mL (≈ 0.178 µM)
  MIC90: 0.25 µg/mL (≈ 0.357 µM)
[24]
  MIC50: 0.125 µg/mL (≈ 0.178 µM)
  MIC90: 0.5 µg/mL (≈ 0.713 µM)
[25]
  MIC50: 0.25 µg/mL (≈ 0.357 µM)
  MIC90: 0.5 µg/mL (≈ 0.713 µM)
[26]
  MIC50: 0.125 µg/mL (≈ 0.178 µM)
  MIC90: 0.25 µg/mL (≈ 0.357 µM)
[27]
  MIC50: 0.06 µg/mL (≈ 0.0856 µM)
  MIC90: 0.125 µg/mL (≈ 0.178 µM)
[28]
  MIC50: 0.25 µg/mL (≈ 0.357 µM)
  MIC90: 0.5 µg/mL (≈ 0.713 µM)
[29]
  MIC50: 1 µg/mL (≈ 1.43 µM)
  MIC90: ≥ 8 µg/mL
[30]
  MIC50: 0.125 µg/mL (≈ 0.178 µM)
  MIC90: 0.25 µg/mL (≈ 0.357 µM)
[31]
  MIC50: 0.125 µg/mL (≈ 0.178 µM)
  MIC90: 0.5 µg/mL (≈ 0.713 µM)
[32]
  MIC50: 0.125 µg/mL (≈ 0.178 µM)
  MIC90: 0.5 µg/mL (≈ 0.713 µM)
[33]
  MIC50: 0.25 µg/mL (≈ 0.357 µM)
  MIC90: 0.5 µg/mL (≈ 0.713 µM)
[34]
  MIC50: 0.125 µg/mL (≈ 0.178 µM)
  MIC90: 0.5 µg/mL (≈ 0.713 µM)
[35]
  MIC50: 0.06 µg/mL (≈ 0.0856 µM)
  MIC90: 0.125 µg/mL (≈ 0.178 µM)
[36]
  MIC50: 0.25 µg/mL (≈ 0.357 µM)
  MIC90: 1 µg/mL (≈ 1.43 µM)
[37]
  MIC50: 0.06 µg/mL (≈ 0.0856 µM)
  MIC90: 0.25 µg/mL (≈ 0.357 µM)
[38]
  MIC50: 0.06 µg/mL (≈ 0.0856 µM)
  MIC90: 0.25 µg/mL (≈ 0.357 µM)
[39]
  MIC50: 1 µg/mL (≈ 1.43 µM)
  MIC90: ≥ 8 µg/mL
[40]
  MIC50: 0.125 µg/mL (≈ 0.178 µM)
  MIC90: 0.25 µg/mL (≈ 0.357 µM)
[41]
  MIC50: 0.125 µg/mL (≈ 0.178 µM)
  MIC90: 4 µg/mL (≈ 5.71 µM)
[42]
  MIC50: 0.125 µg/mL (≈ 0.178 µM)
  MIC90: 0.5 µg/mL (≈ 0.713 µM)
[43]
  MIC50: 0.25 µg/mL (≈ 0.357 µM)
  MIC90: 0.5 µg/mL (≈ 0.713 µM)
[44]
  MIC: ≤ 0.015 µg/mL
[45]
  MIC50: 0.5 µg/mL (≈ 0.713 µM)
  MIC90: 0.5 µg/mL (≈ 0.713 µM)
[46]
  MIC: 0.03 µg/mL (≈ 0.0428 µM)
[1]
  MIC50: ≥ 8 µg/mL
  MIC90: ≥ 8 µg/mL
[2]
  MIC50: 0.25 µg/mL (≈ 0.357 µM)
  MIC90: 1 µg/mL (≈ 1.43 µM)
[3]
  MIC50: 0.03 µg/mL (≈ 0.0428 µM)
[4]
  MIC50: 0.125 µg/mL (≈ 0.178 µM)
[5]
  MIC50: 0.125 µg/mL (≈ 0.178 µM)
[6]
  MIC50: 0.06 µg/mL (≈ 0.0856 µM)
[7]
  MIC50: 0.125 µg/mL (≈ 0.178 µM)
[8]
  MIC50: 0.5 µg/mL (≈ 0.713 µM)
[9]
  MIC50: 1 µg/mL (≈ 1.43 µM)
[10]
  MIC50: 0.125 µg/mL (≈ 0.178 µM)
[11]
  MIC50: ≤ 0.015 µg/mL
[12]
  MIC50: 0.06 µg/mL (≈ 0.0856 µM)
[13]
  MIC50: 0.125 µg/mL (≈ 0.178 µM)
[14]
  MIC50: 0.25 µg/mL (≈ 0.357 µM)
[15]
  MIC50: 0.06 µg/mL (≈ 0.0856 µM)
[16]
  MIC50: 0.06 µg/mL (≈ 0.0856 µM)
[17]
  MIC50: 0.06 µg/mL (≈ 0.0856 µM)
[18]
  MIC50: 0.06 µg/mL (≈ 0.0856 µM)
[19]
  MIC50: 0.06 µg/mL (≈ 0.0856 µM)
[47]
  MIC50: 0.06 µg/mL (≈ 0.0856 µM)
  MIC90: 0.25 µg/mL (≈ 0.357 µM)
[48]
  MIC50: 0.03 µg/mL (≈ 0.0428 µM)
  MIC90: 0.125 µg/mL (≈ 0.178 µM)
